Laboratory results taken from patent publication US8076308B2, “Inhibition of autophagy genes in cancer chemotherapy” (British Columbia Cancer Agency, priority 2005, dated 2011).
Where two headings read alike, the source gives them in different places.

Legend:
MCF-7 cells = assay: Detection of autophagy in tamoxifen treated MCF-7 cells (MDC, LC3-GFP, TEM); type: cell-based, human
Text: Assays for autophagy and cell viability: We used flow cytometry based methods and microscopy to analyze autophagy levels. Cells were stained with MDC and LT-G and first analyzed manually by fluorescence microscopy and then by flow cytometry using a BD® flow cytometer (FACSVANTAGE™ SE, BD, TFL FACS Facility, BCCRC). […] To confirm that these two populations represent a functional difference in autophagy levels, RNA and protein from these FACS sorted cell were subjected to QRT-PCR for the MAP1LC3b gene, a commonly accepted marker for autophagy (16). In addition, the two populations were analyzed by Transmission Electron Microscopy (TEM) for the presence of autophagosomes (9).
FIG. 8. […] B. MCF-7 cells treated with 10^-6 M tamoxifen. In panels A, B, & D, cells are stained with the autolysosomal marker, MDC, detected as punctate staining (e.g. arrows in B).
In panels C and D, autophagy is detected by LC3-GFP localization. C. Punctate GFP-LC3 in transient transfected MCF7 cells treated with TAM. […] In panel E-H, TEM analyses indicate that autolysosomes are abundant in tamoxifen treated MCF7 cell sorted MDC (+) populations but not untreated MCF7 cells. Representative image of an untreated MCF7 cell is shown in (E) with a magnified view of the same cell in (G). Panels (F) and (H) show a cell treated with 5 uM tamoxifen (72 hrs).

[1] = tested on: MCF7 human breast carcinoma cells; details: literature (9), cited from earlier work
[2] = tested on: FM3A murine breast tumour cells; details: literature (10); cited from earlier work

## CC/C(=C(\c1ccccc1)c1ccc(OCCN(C)C)cc1)c1ccccc1 [Tamoxifen]
MCF-7 cells; MCF7 cell treated with 5 uM tamoxifen (72 hrs), versus untreated
  Autolysosomes by TEM: Numerous autolysosomes
MCF-7 cells; MCF-7 cells, 10^-6 M tamoxifen
  Induction of autophagy (MDC punctate staining, LC3-GFP localization): induces autophagy
[1]; listed as tamoxifen
  Induction of autophagy: undergo autophagy
[1]
  Induction of autophagy: induce autophagy
[2]
  Induction of autophagy: induce autophagy
